The text below walks through data of patent US20150273088A1 (Board of Regents, The University of Texas System, priority 2014, published 2015).

Series [1] deals with T1, purified, full length, human GLS1 (Homo sapiens, UniProt O94925).
T1 construct: 6xHis (N); made in house; host or cells: E. coli BL-21
T1 sequence (O94925 55-669): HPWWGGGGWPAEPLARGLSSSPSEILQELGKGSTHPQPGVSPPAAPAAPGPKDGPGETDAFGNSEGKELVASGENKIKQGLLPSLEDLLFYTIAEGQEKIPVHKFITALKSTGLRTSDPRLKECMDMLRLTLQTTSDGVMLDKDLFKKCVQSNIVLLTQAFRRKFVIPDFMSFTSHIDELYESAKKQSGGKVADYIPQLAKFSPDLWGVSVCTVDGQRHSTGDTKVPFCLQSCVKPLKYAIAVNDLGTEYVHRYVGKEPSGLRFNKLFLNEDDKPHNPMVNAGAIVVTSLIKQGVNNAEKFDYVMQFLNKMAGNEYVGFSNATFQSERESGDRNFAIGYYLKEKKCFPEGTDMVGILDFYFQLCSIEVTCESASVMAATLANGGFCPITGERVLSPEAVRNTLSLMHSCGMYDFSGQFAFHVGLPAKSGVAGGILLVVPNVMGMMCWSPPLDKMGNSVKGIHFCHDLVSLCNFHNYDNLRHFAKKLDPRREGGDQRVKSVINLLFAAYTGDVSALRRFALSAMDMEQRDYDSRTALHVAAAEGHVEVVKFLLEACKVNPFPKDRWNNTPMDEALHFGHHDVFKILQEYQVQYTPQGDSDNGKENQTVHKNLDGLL
As to the kind of experiment: Glutaminase assay (two-step, purified enzyme). It counts as biochemical. The procedure:
Glutaminase assay. N-terminal 6×-His tagged GLS1 was expressed and purified from chemically competent BL-21 E. coli using Ni-NTA agarose beads (Qiagen). Purified protein was then dialyzed in a 50 mM Tris-phosphate buffer containing 1 mM dithiothreitol at 4° C. overnight. A previously described two-step assay was used to measure glutaminase activity (Kenny et al., 2003). […] […] […] For the second step of the assay, 20 μL of completed and quenched initial reaction were transferred to a new plate and 200 μL of secondary reaction mix containing 0.4 mg bovine liver glutamate dehydrogenase (Sigma-Aldrich), 0.09 M Tris-acetate (pH 9.4), 0.2 M hydrazine, 0.25 mM ADP, and 2 mM NAD was added. Samples were incubated for 40 minutes at room temperature and absorbance of NADH (340 nm) was measured using a microplate spectrophotometer.

The subject of series [2] is HT1080 cells (endogenous IDH1 R132C). The series can be described thus: 2HG fluorimetric assay / high-throughput screen, secreted 2HG in media. It counts as cell-based, human. The procedure: 2HG fluorimetric assay. N-terminal 6×-His tagged PHGDH was expressed and purified from chemically competent BL-21 E. coli using Ni-NTA agarose (Qiagen) (Grant et al., 1999). Purified protein was then dialyzed in 40 mM KPO4 buffer at 4° C. overnight. Conditioned culture media (DMEM or aMEM) containing 2HG was neutralized with 60 mM HCL for 10 minutes followed by 60 mM Tris base. A 20 μL aliquot of neutralized conditioned media was then mixed with 90 μL of optimized assay reaction mix consisting of 5 μg purified PHGDH enzyme, 12.5 μM resazurin (Sigma-Aldrich), 0.125 U/ml diaphorase (Sigma-Aldrich), 1 mM NAD (Sigma-Aldrich), 40 mM Tris-HCl pH 8.8, and incubated for 90 minutes in a 96-well plate. Resorufin fluorescence was then quantified using a FLUOstar™ OPTIMA fluorescence plate reader (BMG Labtech) with excitation and emission peaks of 544 nm and 590 nm, respectively. Measurements were background subtracted (neutralized fresh media) and normalized either to total protein or viability as measured by Alamar Blue (Naik et al., 2009).
High-throughput screening. Screening was carried out using the Beckman Coulter (Fullerton, Calif.) Core Robotics system, including an FX liquid handler, controlled by the Sagian graphical method development tool (SAMI scheduling software). The Institute of Chemistry and Cell Biology (ICCB) Known Bioactives Library (Enzo Lifescience, BML-2840-0100) was diluted 1:200 in αMEM and 50 μL were added to pre-plated HT1080 cells. After 48 hours of incubation, media was removed and 2HG in the media was measured using the fluorimetric assay. Fresh 2HG fluorimetric assay reaction mix was prepared immediately before assaying each screen plate to limit background modulation. Cell viability was determined using Alamar Blue, as described previously (Naik et al., 2009).
To identify screen hits and account for differences in compound toxicity, 2HG fluorescence was first median-centered around DMSO treatment controls within each screen plate. 2HG fluorescence was then plotted against viability such that a correlation between the two measurements could be visualized. A linear fit and 95% predictive interval (P.I.) were then determined and plotted using GraphPad Prism (GraphPad Software).

Series [3] deals with PDAC cells Panc1 and MiaPaca2. The series can be described thus: ROS quantification (DCFDA). It counts as cell-based. The settings on record: 48 hours. The procedure:
ROS quantification. Reactive oxygen species levels in PDAC cells were quantified using 2,7-dichlorofluorescein diacetate (DCFDA). Following 48 hours of drug treatment in a 96-well plate, cells were washed with PBS, stained for 30 minutes at 37° C. with 20 μM DCFDA, and imaged using an InCell Analyzer 1000. A 10× objective was used to collect 16 fluorescent and bright field images per well with a 10% overlap to allow image stitching. Stained cells were then quantified using the GE InCell Investigator software package with Developer Toolbox.

What is called IC50 is the concentration that gives 50% inhibition. What is called Ki is the dissociation constant of the complex between target and ligand, obtained from inhibition or displacement. On to `CCCOc1ccccc1-c1nc2nn[nH]c2c(=O)[nH]1` [Zaprinast, 5-(2-propoxyphenyl)-1H-[1,2,3]triazolo[4,5-d]pyrimidin-7(4H)-one], for which the “Mode of GLS1 inhibition” value in series [1] (Lineweaver-Burk, with respect to glutamine) is “noncompetitive inhibitor”. The IC50 in series [1] (purified human GLS1, read-out: IC50, enzymatic activity of GLS1) is about 200 µM. Moreover, the Ki in series [1] (read-out: Ki, GLS1 kinetic analysis) was determined as 220 µM. In addition, the “Viability in high-throughput screen (Alamar Blue)” value in series [2] (HT1080, 48 hours) is given as “little effect on viability”. The “2HG in high-throughput screen” value in series [2] (HT1080, 48 hours, screen hits top left quadrant) was “reduced 2HG”. In addition, the “Secreted (extracellular) 2HG” value in series [2] (HT1080 cells, 48 hours, fluorescent assay, normalized to viability) was “concentration-dependent reduction”. Also, the “Concentration required to observe a significant reduction in 2HG” value in series [2] (in cells) was in the range of 100 to 300 µM. For the same molecule, in series [3], the “Reactive oxygen species (DCFDA-positive cells)” value was “increase in reactive oxygen species (ROS) in a concentration-dependent manner”.
